Data published in patent US10041937B2, “Macrophage identification agent, and identification method, sorting method, evaluation method, screening method and kit using the macrophage identifier agent” (CANON KABUSHIKI KAISHA, priority 2013, dated 2018).

System: M1 macrophages and M2 macrophages differentiated from mouse bone marrow cells
Experiment: Subtype identification by staining and flow cytometry of M1 and M2 macrophages differentiated from mouse bone marrow cells
Assay type: cell-based, Balb/c mouse
Conditions: for Selectivity: subtype strongly stained
Method: The culture of subtypes was performed according to a protocol described in NPL 7. Specifically, bone marrow cells collected from the femur of a Balb/c mouse of 8 to 10 weeks old were dispersed to a concentration of 1×10^6/mL in an IMDM containing 20% FBS and 1% P/S, and 1×10^7 cells were seeded in a 100 mm dish. After further adding an M-CSF (manufactured by Pepro Tech) thereto to a concentration of 50 ng/mL, the cells were incubated for 3 to 4 days in the presence of 5% CO2 at 37° C., so as to differentiate macrophage precursor cells to macrophages. After exchanging the medium, the M-CSF was added to a concentration of 50 ng/mL, and the incubation was performed for further 3 to 4 days in the presence of 5% CO2 at 37° C., and then, the resulting cells were differentiated to macrophage. By adding 200 ng of interferon-γ and 1 μg of […] (both manufactured by Pepro Tech) to the IMDM containing 5% FBS and 1% P/S, the cells were differentiated to the subtype M1. Besides, by adding 100 ng of IL-4 to the IMDM containing 5% FBS and 1% P/S, the cells were differentiated to the subtype M2. After performing the incubation for further 3 days in the presence of 5% CO2 at 37° C., the resultant was rinsed with PBS, and PBS containing 0.25% trypsin and 1 mM EDTA (ethylenediaminetetraacetic acid) was used for collecting, from the dish, the macrophages having been differentiated to the subtypes M1 and M2.
Thereafter, the tube was centrifuged at 180 G for 10 minutes to remove the supernatant, a dye for identifying dead cells (aqua fluorescent reactive dye, manufactured by Invitrogen; which is hereinafter sometimes abbreviated as aqua) was added thereto, and the resultant was incubated at 4° C. for 10 minutes. Subsequently, the tube was centrifuged at 180 G for 10 minutes to remove the supernatant, cells were suspended in a FACS buffer to be analyzed by using FACSCanto (trademark) II flow cytometry apparatus manufactured by BD.
The analysis was performed on a cell population showing a low signal for the aqua, so as to analyze a cell population from which dead cells were eliminated. […] A histogram was prepared by plotting fluorescence intensity obtained in the FITC channel on the abscissa and plotting the number of cells at each fluorescence intensity on the ordinate, which is shown in FIG. 2.
Histograms were prepared by plotting fluorescence intensities obtained in the respective channels on the abscissa and plotting the numbers of cells at each fluorescence intensity on the ordinate. A difference between a fluorescence intensity (FM1) at a peak top of the histogram of the M1 macrophage and a fluorescence intensity (FM2) at a peak top of the histogram of the M2 macrophage is divided by a sum of a peak width (WM1) of the histogram of the M1 macrophage and a peak width (WM2) of the histogram of the M2 macrophage, so as to obtain a resolution R, which was used as an index of the identification ability for a subtype (see the following expression (1)). Resolution R=|FM1−FM2|/(WM1+WM2) Expression (1)

[1] = M1 vs M2 macrophages from mouse bone marrow cells, general formula (6) dyes (Table 7)
[2] = class based on resolution R, general formula (6) dyes (Table 7)
[3] = mouse bone marrow-derived M1 macrophages, channel listed per compound, general formula (6) dyes (Table 7)
[4] = mouse bone marrow-derived M2 macrophages, channel listed per compound, general formula (6) dyes (Table 7)
[5] = R=|FM1−FM2|/(WM1+WM2), compound 1 μM
[6] = fluorescence intensity at peak top of histogram, compound 1 μM, 37° C., 30 minutes
[7] = M1 vs M2 macrophages from mouse bone marrow cells, general formula (10) dyes (Table 8)
[8] = class based on resolution R, general formula (10) dyes (Table 8)
[9] = mouse bone marrow-derived M1 macrophages, channel listed per compound, general formula (10) dyes (Table 8)
[10] = mouse bone marrow-derived M2 macrophages, channel listed per compound, general formula (10) dyes (Table 8)
[11] = M1 vs M2 macrophages from mouse bone marrow cells, general formula (11) dyes (Table 9)
[12] = class based on resolution R, general formula (11) dyes (Table 9)
[13] = mouse bone marrow-derived M1 macrophages, channel listed per compound, general formula (11) dyes (Table 9)
[14] = mouse bone marrow-derived M2 macrophages, channel listed per compound, general formula (11) dyes (Table 9)

## CCN1/C(=C\C=C\c2sc3ccccc3[n+]2CC)Sc2ccccc21 [(100)]
[1]
  Resolution ratio R: 0.372
[2]
  Evaluation of macrophage subtype identification: B (the compound is good in the subtype identification (namely, the resolution R is 0.15 or more and less than 0.5))
[3]
  Peak position of M1 macrophage: 16.41
[4]
  Peak position of M2 macrophage: 32.87

## COc1ccc2cc(N3c4ccc(/C=C5\C(=O)N(c6ccc(C(=O)O)cc6)N=C5C)cc4C4CCCC43)ccc2c1 (centres unmarked) [(36)]
[5]
  Resolution ratio R: 0.344
[6]
  Peak position of M1 macrophage: 5.70
  Peak position of M2 macrophage: 3.82
Rated from resolution R
  Evaluation of macrophage subtype identification: B (the compound is good in the subtype identification (namely, the resolution R is 0.15 or more and less than 0.5))

## CCN(CC)c1ccc2cc(-c3nc4ccccc4[nH]3)c(=O)oc2c1 [(131)]
[7]
  Resolution ratio R: 0.480
[8]
  Evaluation of macrophage subtype identification: B (the compound is good in the subtype identification (namely, the resolution R is 0.15 or more and less than 0.5))
[9]
  Peak position of M1 macrophage: 8.06
[10]
  Peak position of M2 macrophage: 13.5

## CCN1c2ccc(/C=C3/SC(=S)N(CCC(=O)O)C3=O)cc2CC1C (centres unmarked) [(56)]
[5]
  Resolution ratio R: 0.207
[6]
  Peak position of M1 macrophage: 4.90
  Peak position of M2 macrophage: 6.36
Rated from resolution R
  Evaluation of macrophage subtype identification: B (the compound is good in the subtype identification (namely, the resolution R is 0.15 or more and less than 0.5))

## COc1ccc(N2c3ccc(/C=C/C4=[N+](C)c5ccccc5C4(C)C)cc3C3CCCC32)cc1 (centres unmarked) [(62)]
[5]
  Resolution ratio R: 0.561
[6]
  Peak position of M1 macrophage: 193
  Peak position of M2 macrophage: 333
Rated from resolution R
  Evaluation of macrophage subtype identification: A (The compound is very good in the subtype identification (namely, the resolution R is 0.5 or more))
  Selectivity: M2

## CCN(CC)c1ccc2cc(-c3nc4cc(Cl)ccc4s3)c(=O)oc2c1 [(122)]
[7]
  Resolution ratio R: 0.377
[8]
  Evaluation of macrophage subtype identification: B (the compound is good in the subtype identification (namely, the resolution R is 0.15 or more and less than 0.5))
[9]
  Peak position of M1 macrophage: 142
[10]
  Peak position of M2 macrophage: 211

## CCN(CC)c1ccc2cc(-c3nc4ccc(OC)cc4o3)c(=O)oc2c1 [(132)]
[7]
  Resolution ratio R: 0.624
[8]
  Evaluation of macrophage subtype identification: A (The compound is very good in the subtype identification (namely, the resolution R is 0.5 or more))
[9]
  Peak position of M1 macrophage: 30.3
[10]
  Peak position of M2 macrophage: 53.8

## O=C(O)CN1C(=O)/C(=C\c2ccc3c(c2)C2CCCC2N3Cc2ccccc2)SC1=S (centres unmarked) [(28)]
[5]
  Resolution ratio R: 0.431
[6]
  Peak position of M1 macrophage: 9.54
  Peak position of M2 macrophage: 15.8
Rated from resolution R
  Evaluation of macrophage subtype identification: B (the compound is good in the subtype identification (namely, the resolution R is 0.15 or more and less than 0.5))

## COc1ccc(N2c3ccc(/C=C4\C(=O)N(c5ccccc5)N=C4C(=O)O)cc3C3CCCC32)cc1 (centres unmarked) [compound (33)]
[5]
  Resolution ratio R: 0.522
[6]
  Peak position of M1 macrophage: 5.00
  Peak position of M2 macrophage: 9.05
Rated from resolution R
  Evaluation of macrophage subtype identification: A (The compound is very good in the subtype identification (namely, the resolution R is 0.5 or more))
Two compounds used in combination, each 1 μM
  subtype more strongly stained: the M2 macrophages are more strongly stained than the M1 macrophages

## CCN1C(=O)S/C(=c2/s/c(=C/c3ccc4c(c3)C3CCCC3N4Cc3ccccc3)c(=O)n2CC(=O)O)C1=O (centres unmarked) [(43)]
[5]
  Resolution ratio R: 0.411
[6]
  Peak position of M1 macrophage: 7.14
  Peak position of M2 macrophage: 13.0
Rated from resolution R
  Evaluation of macrophage subtype identification: B (the compound is good in the subtype identification (namely, the resolution R is 0.15 or more and less than 0.5))

## CSc1cccc(N2c3ccc(/C=C4/SC(=S)N(CC(=O)O)C4=O)cc3C3CCCC32)c1 (centres unmarked) [(50)]
[5]
  Resolution ratio R: 1.025
[6]
  Peak position of M1 macrophage: 3.24
  Peak position of M2 macrophage: 0.99
Rated from resolution R
  Evaluation of macrophage subtype identification: A (The compound is very good in the subtype identification (namely, the resolution R is 0.5 or more))

## COC(=O)C(C)N1C(=O)/C(=C\c2ccc3c(c2)C2CCCC2N3c2ccc(OC)cc2)SC1=S (centres unmarked) [(7)]
[5]
  Resolution ratio R: 0.567
[6]
  Peak position of M1 macrophage: 65.4
  Peak position of M2 macrophage: 23.6
Rated from resolution R
  Evaluation of macrophage subtype identification: A (The compound is very good in the subtype identification (namely, the resolution R is 0.5 or more))

## CCN1/C(=C\C=C\c2ccc3ccccc3[n+]2CC)C=Cc2ccccc21 [(104)]
[1]
  Resolution ratio R: 0.698
[2]
  Evaluation of macrophage subtype identification: A (The compound is very good in the subtype identification (namely, the resolution R is 0.5 or more))
[3]
  Peak position of M1 macrophage: 95.26
[4]
  Peak position of M2 macrophage: 197.19
General formula (6) dyes (Table 7)
  Selectivity: M2

## CCC1=C(C)C2=C(C)c3c(C)c(CC)c(C)n3[B-](C#C[Si](C)(C)C)(C#C[Si](C)(C)C)[N+]2=C1C [compound (154)]
[11]
  Resolution ratio R: 0.160
[12]
  Evaluation of macrophage subtype identification: B (the compound is good in the subtype identification (namely, the resolution R is 0.15 or more and less than 0.5))
[13]
  Peak position of M1 macrophage: 1.25
[14]
  Peak position of M2 macrophage: 1.63

## CC1(C)C(/C=C/C=C/C=C/C=C2\N(CCCCS(=O)(=O)[O-])c3ccccc3C2(C)C)=[N+](CCCCS(=O)(=O)[O-])c2ccccc21.[Na+] [(90)]
[1]
  Resolution ratio R: 0.321
[2]
  Evaluation of macrophage subtype identification: B (the compound is good in the subtype identification (namely, the resolution R is 0.15 or more and less than 0.5))
[3]
  Peak position of M1 macrophage: 0.86
[4]
  Peak position of M2 macrophage: 1.31

## CCN1c2ccc(/C=C3/SC(=S)N(CC(=O)O)C3=O)cc2C2CCCC21 (centres unmarked) [(26)]
[5]
  Resolution ratio R: 0.202
[6]
  Peak position of M1 macrophage: 3.51
  Peak position of M2 macrophage: 4.49
Rated from resolution R
  Evaluation of macrophage subtype identification: B (the compound is good in the subtype identification (namely, the resolution R is 0.15 or more and less than 0.5))

## CN1/C(=C\C=C\C2=[N+](C)c3ccccc3C2(C)C)C(C)(C)c2ccccc21 [(95)]
[1]
  Resolution ratio R: 0.421
[2]
  Evaluation of macrophage subtype identification: B (the compound is good in the subtype identification (namely, the resolution R is 0.15 or more and less than 0.5))
[3]
  Peak position of M1 macrophage: 71.57
[4]
  Peak position of M2 macrophage: 133.45

## Cc1cc(C)n2c1C=C1C=CC(CCC(=O)c3c(F)c(F)c(S(=O)(=O)O)c(F)c3F)=[N+]1[B-]2(F)F [(167)]
[11]
  Resolution ratio R: 0.525
[12]
  Evaluation of macrophage subtype identification: A (The compound is very good in the subtype identification (namely, the resolution R is 0.5 or more))
[13]
  Peak position of M1 macrophage: 14.5
[14]
  Peak position of M2 macrophage: 7.82

## CCOC(=O)CN1C(=O)/C(=C\c2cc(Br)c3c(c2)C2CCCC2N3c2ccc(Br)cc2)SC1=S (centres unmarked) [(49)]
[5]
  Resolution ratio R: 0.486
[6]
  Peak position of M1 macrophage: 3.26
  Peak position of M2 macrophage: 5.02
Rated from resolution R
  Evaluation of macrophage subtype identification: B (the compound is good in the subtype identification (namely, the resolution R is 0.15 or more and less than 0.5))

## CC1(C)C(/C=C/C=C/C=C/C=C2\N(CCCCCC(=O)[O-])c3ccccc3C2(C)C)=[N+](CCCCCC(=O)[O-])c2ccccc21.[Na+] [(91)]
[1]
  Resolution ratio R: 0.476
[2]
  Evaluation of macrophage subtype identification: B (the compound is good in the subtype identification (namely, the resolution R is 0.15 or more and less than 0.5))
[3]
  Peak position of M1 macrophage: 2.96
[4]
  Peak position of M2 macrophage: 13.89
